Assay results reported in US10676496B2, “Method for producing flavonoid inclusion compound” (TAIYO KAGAKU CO., LTD., priority 2017, dated 2020).
Where two headings read alike, the source gives them in different places.

How the values were obtained:
[1] = Evaluation of bioavailability; assay type: in vivo
From the text: Evaluation of Bioavailability
Nine-week-old Wister rats (male) were given with MF (Oriental Yeast Co., Ltd.) and bred for 7 days, and the rats were then subjected to fasting from the day before the administration of a test substance. Thereafter, 100 μmol/kg (calculated as IQC) of a dried product of Example 16 prepared in the evaluation of the effects of preventing flavor deterioration, a rutin suspension (Alps Pharmaceutical Ind., Co., Ltd., 100 μmol/kg (calculated as IQC)), 1,000 μmol/kg (calculated as HPT-7G) of dried product of Example 22 prepared in the evaluations of the effects of preventing flavor deterioration, and a hesperidin suspension (Hamari Chemicals., Ltd., 1,000 μmol/kg (calculated as HPT-7G)) were orally administered to the rats in a single dose (orally administered by gavage, n=2). Blood collection into heparinized tubes was carried out from tail veins of rats 30 minutes, 1 hour and 3 hours after the administration, and the blood was centrifuged to obtain plasma. In the drawn sera sample, the amounts of quercetin derivatives were measured according to a method by Makino et al (Biol. pharm. Bull., 32(12) 2034, 2009), and the amounts of hesperetin derivatives were measured according to a method by Yamada et al (Biosci. Biotechnol. Biochem, 70(6), 1386, 2006), and analysis was made by applying the sample to high-performance liquid chromatography (SHIMADZU) and using a photodiode array detector (SPD-M30A, SHIMADZU).

[2] = Evaluation of storage stability (lemon beverage); assay type: physicochemical; details: 0.3% as naringenin-7-glucoside; for presence or absence of the precipitates, 4° C.: 1 month at 4° C.; for presence or absence of the precipitates, 25° C.: 1 month at 25° C.
Protocol: Evaluation of Storage Stability (Lemon Beverage)
Naringin (manufactured by SIGMA), naringenin-7-glucoside (prepared hereinbelow) or a flavonoid inclusion compound-containing composition of Example 109 was added to a commercially available lemon beverage (C1000 Lemon Water, manufactured by HOUSE […] FOODS CORPORATION) so as to have a concentration calculated as 0.3% in terms of naringenin-7-glucoside conversion, the beverage was allowed to stand for 1 month at 4° C. or 25° C., and the presence or absence of the precipitates was then visually observed.
After the termination of the reaction according to Comparative Example 102, the precipitates that were previously allowed to stand at room temperature were recovered, washed with water, recrystallized and dried, to give 13 g of naringenin-7-glucoside having a content of 95% or more. The identity of the product with a reagent naringenin-7-glucoside (Wako) by HPLC and a content thereof were analyzed.

[3] = cited from earlier work
[4] = Evaluation of storage stability (green tea); assay type: physicochemical; details: 0.03% as hesperetin-7-glucoside; for presence or absence of the precipitates, 4° C.: 7 days at 4° C.; for presence or absence of the precipitates, 25° C.: 7 days at 25° C.
Protocol: Evaluation of Storage Stability (Green Tea)
Hesperidin (manufactured by Hamari Chemicals., Ltd.), hesperetin-7-glucoside (prepared in the following), a flavonoid inclusion compound of Example 22 or a composition of flavonoid glycosides of Example 40 was added to a commercially available green tea (“Oi Ocha,” manufactured by ITO EN, LTD.) so as to have a concentration calculated as 0.03% in terms of hesperetin-7-glucoside conversion. The mixture was allowed to stand for 7 days at 4° C. and 25° C., and the presence or absence of the precipitates was then visually observed.
Seven grams of Hesperidin (manufactured by Hamari Chemicals., Ltd.) was added to […] of an aqueous solution, and the solution was adjusted to 70° C. and a pH of 4.5. Thereafter, 0.5 g of naringinase (Amano Enzyme Inc. 155 u/g) was added thereto while stirring, and the solution was recovered and dried, to give 4.2 g of hesperetin-7-glucoside having a content of 96% or more. Identification as being hesperetin-7-glucoside and a content thereof were analyzed by NMR and HPLC in the same manner as mentioned above.

[5] = compared with rutin, hesperidin, or naringin having a rhamnoside structure

Structure (SMILES): C[C@@H]1O[C@@H](OC[C@H]2O[C@@H](Oc3c(-c4ccc(O)c(O)c4)oc4cc(O)cc(O)c4c3=O)[C@H](O)[C@@H](O)[C@@H]2O)[C@H](O)[C@H](O)[C@H]1O [Rutin Suspension, rutin]
- AUC, Total (quercetin and quercetin derivatives) ([1]; male, Wister, rat, in vivo, po, 100 umol/kg): 0.1 µM·h

Structure (SMILES): O=C1C[C@@H](c2ccc(O)cc2)Oc2cc(O[C@@H]3O[C@H](CO)[C@@H](O)[C@H](O)[C@H]3O)cc(O)c21 [Naringenin-7-glucoside, naringenin-7-glucoside]
- presence or absence of the precipitates, 4° C. [2]: x (those in which the precipitates were observed were evaluated as x)
- presence or absence of the precipitates, 25° C. [2]: x (those in which the precipitates were observed were evaluated as x)
- bioavailability in rats [3, 5]: higher

Structure (SMILES): C[C@@H]1O[C@@H](O[C@H]2[C@H](Oc3cc(O)c4c(c3)O[C@H](c3ccc(O)cc3)CC4=O)O[C@H](CO)[C@@H](O)[C@@H]2O)[C@H](O)[C@H](O)[C@H]1O [Naringin]
- presence or absence of the precipitates, 4° C. [2]: x (those in which the precipitates were observed were evaluated as x)
- presence or absence of the precipitates, 25° C. [2]: x (those in which the precipitates were observed were evaluated as x)

Structure (SMILES): COc1ccc(C2CC(=O)c3c(O)cc(OC4OC(CO)C(O)C(O)C4O)cc3O2)cc1O (stereo not drawn) [Hesperetin-7-Glucoside, hesperetin-7-glucoside]
- presence or absence of the precipitates, 4° C. [4]: x (those in which the precipitates were observed were evaluated as x)
- presence or absence of the precipitates, 25° C. [4]: x (those in which the precipitates were observed were evaluated as x)
- bioavailability in rats ([3]; rat, in vivo): higher

Structure (SMILES): O=c1c(O[C@@H]2O[C@H](CO)[C@@H](O)[C@H](O)[C@H]2O)c(-c2ccc(O)c(O)c2)oc2cc(O)cc(O)c12 [Isoquercitrin, isoquercitrin]
- bioavailability in rats [3, 5]: higher

Structure (SMILES): O=C1C[C@@H](c2ccc(O)cc2)Oc2cc(O)cc(O)c21 [naringenin]
- bioavailability in rats [3, 5]: higher

Structure (SMILES): COc1ccc([C@@H]2CC(=O)c3c(O)cc(O[C@@H]4O[C@H](CO[C@@H]5O[C@@H](C)[C@H](O)[C@@H](O)[C@H]5O)[C@@H](O)[C@H](O)[C@H]4O)cc3O2)cc1O [Hesperidin]
- presence or absence of the precipitates, 4° C. [4]: x (those in which the precipitates were observed were evaluated as x)
- presence or absence of the precipitates, 25° C. [4]: x (those in which the precipitates were observed were evaluated as x)
- AUC, hesperetin ([1]; rat plasma, single oral 1,000 μmol/kg (calculated as HPT-7G), 0 to 3 hours): 0.082 µM·h
- Hesperetin concentration ([1]; rat plasma, single oral 1,000 μmol/kg (calculated as HPT-7G), time of blood drawing 0): 0 µM
- Hesperetin concentration ([1]; rat plasma, single oral 1,000 μmol/kg (calculated as HPT-7G), time of blood drawing 0.5 (hours)): 0.003 µM
- Hesperetin concentration ([1]; rat plasma, single oral 1,000 μmol/kg (calculated as HPT-7G), time of blood drawing 1 (hour)): 0.064 µM
- Hesperetin concentration ([1]; rat plasma, single oral 1,000 μmol/kg (calculated as HPT-7G), time of blood drawing 3 (hours)): 0 µM
